What was measured:
[1] = tested on: human-derived lung cancer H460 xenograft; experiment: Therapeutic effect against H460 xenograft in nude mice; assay type: in vivo, Balb/c nude mice; conditions: QOD × 21 d
Method: This experiment is to investigate the in vivo inhibitory effect of II1E-01.HCl on growth of human-derived hepatic carcinoma HepG2 cell, human-derived breast carcinoma MDA-MB-231 cell, human-derived lung carcinoma H460 cell, human-derived colon carcinoma HCT-116 cell, human-derived […] MV-4-11 cell xenografts in nude mice.
Formulation of solvent control (5% anhydrous ethanol & 5% aqueous glucose solution): 2.5 mL anhydrous ethanol was added into a 50 mL tube, followed by addition of 47.5 mL 5% glucose solution for injection followed by shaking, and stored at room temperature before use.
Formulation of the preparations of the compounds to be tested: formulations with concentrations of 0.4 mg/mL and 0.6 mg/mL were prepared respectively. An appropriate amount of II1E-01.HCl was weighted and put into a 50 mL tube, followed by addition of corresponding volume of solvent to get the desired concentration and mixed using a vortex mixer. After the solid was dissolved completely, the solution was subpackaged into 4 mL vials and stored at refrigerated condition (2-8° C.) until use.
Experimental animals: Balb/c nude mice (male, six weeks old).
NCI-H460 xenograft model was established by tumor implantation. 19 days after the implantation, the tumor size reached about 210 mm^3. The mice bearing the tumor were grouped by randomized block method according to the tumor size into 3 groups, which contain 10 mice in each group and include the group of solvent control, and groups of middle (4 mg/kg) and high (6 mg/kg) dosages of the testing compound II1E-01.HCl. In the solvent control group, 5% glucose solution was administered intravenously at tail once every other day (QOD). The testing compound was administered intravenously at tail once every other day (QOD). The animals were given the drugs for three weeks, during which the growth of tumor and the body weight of the mice were observed.
After continuously administering for 21 days (the 40th day after the implantation), the tumor weight and inhibition rate were calculated, and results are listed in Table 7.

[2] = tested on: HeLa human cervical carcinoma cell line; experiment: In vitro antitumor activity assay (SRB), HeLa; assay type: cell-based; conditions: read-out: IC50, inhibitory activity on cell proliferation of HeLa cell line
Procedure, shortened: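 Log-phase cells attached 24 h, then exposed in triplicate to compounds at 10 μM–0.1 nM in saline for 72 h at 37 °C in RPMI-1640. TCA-fixed, SRB-stained, A515 read; percent inhibition versus saline control, IC50 fitted.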

For `C[C@]12CC[C@H](OC(=O)NC3CCNCC3)C[C@H]1CC[C@@H]1[C@@H]2CC[C@]2(C)[C@@H](c3ccc(=O)oc3)CC[C@]12O.Cl` [II1E-01•HCl], the “Tumor Weight(g) Mean ± SE” value ([1]; 4 mg/kg iv) was 0.5125 ± 0.0307 g, the “Inhibition Rate (%)” value ([1]; 4 mg/kg iv, 4 mg/kg) was 61.94% and the “Inhibition Rate (%)” value ([1]; 4 mg/kg iv, listed as II1E-01.HCl, 4 mg/kg) was 61.94%. For the same compound, the “Tumor Weight(g) Mean ± SE” value ([1]; 6 mg/kg iv) was 0.3246 ± 0.0692 g, the “Inhibition Rate (%)” value ([1]; 6 mg/kg iv, 6 mg/kg) was 75.90% and the “Inhibition Rate (%)” value ([1]; 6 mg/kg iv, listed as II1E-01.HCl, 6 mg/kg) was 75.90%.
`C[C@]12CC[C@H](O)C[C@H]1CC[C@@H]1[C@@H]2CC[C@]2(C)[C@@H](c3ccc(=O)oc3)CC[C@]12O` [bufalin, reference compound] gave an IC50 [2] of 7.27 nM.

Reference: patent US20130005696A1, “BUFADIENOLIDE DERIVATIVES, PREPARING PROCESS THEREOF, COMPOSITION COMPRISING THE SAME AND THE USE THEREOF” (priority 2011, published 2013)
